Source: article PMC4703368, “A Conserved Interaction between a C-Terminal Motif in Norovirus VPg and the HEAT-1 Domain of eIF4G Is Essential for Translation Initiation” (PLoS Pathogens, 2016)

How the values were obtained:
His-eIF4GI HEAT-1 [1] = assay: cobalt affinity pull-down, SDS PAGE band quantification; settings: parent: est. 100; read off a plot
[2] = test system: His-tagged MNV VPg(1–124); assay: cobalt affinity pull-down, eIF4GI HEAT-1 mutants as prey (Fig 5D-E)
His-eIF4GI HEAT-1 [3] = assay: cobalt affinity pull-down, GST-VPg C-terminal fusions as prey (Fig 4B-E); type: binding, human; settings: for % binding (relative to WT) / Bait/Prey / Prey/Bait: Figure 4E; for % binding (relative to WT): ImageJ quantification; for Bait/Prey / Prey/Bait: band density ratio, ImageJ; for binding to His-eIF4GI HEAT-1 in cobalt pull-down: bait 2.6 µM, GST-VPg fusions 1.5 µM; for binding to His-eIF4GI HEAT-1 in cobalt pull-down / binding to His-eIF4GI HEAT-1, % of wild-type: 25 mM MES, 150 mM NaCl, pH 6.5; for binding to His-eIF4GI HEAT-1, % of wild-type: quantification of pull-down, Fig 4E

Substance	percent of parent (% of WT (normalised OD ratio)) (His-eIF4GI HEAT-1 [1])	% binding (relative to WT) (His-eIF4GI HEAT-1 [3]; repeat 1, 2014-07-24)	Bait/Prey (His-eIF4GI HEAT-1 [3]; repeat 1, 2014-07-24)	Prey/Bait (His-eIF4GI HEAT-1 [3]; repeat 1, 2014-07-24)	% binding (relative to WT) (His-eIF4GI HEAT-1 [3]; repeat 2, 2014-07-25)	Bait/Prey (His-eIF4GI HEAT-1 [3]; repeat 2, 2014-07-25)	Prey/Bait (His-eIF4GI HEAT-1 [3]; repeat 2, 2014-07-25)	% binding (relative to WT) (His-eIF4GI HEAT-1 [3]; repeat 3, 2014-07-25)	Bait/Prey (His-eIF4GI HEAT-1 [3]; repeat 3, 2014-07-25)	Prey/Bait (His-eIF4GI HEAT-1 [3]; repeat 3, 2014-07-25)	% binding (relative to WT) (His-eIF4GI HEAT-1 [3]; repeat 4, 2014-07-31)	Bait/Prey (His-eIF4GI HEAT-1 [3]; repeat 4, 2014-07-31)	Prey/Bait (His-eIF4GI HEAT-1 [3]; repeat 4, 2014-07-31)	binding to His-eIF4GI HEAT-1 in cobalt pull-down (His-eIF4GI HEAT-1 [3])	other results
GST-MNV VPg(102–124) K120A	90														
GST-MNV VPg(102–124) R113A	64														
E913R															Relative density normalised to WT (%) ([2]; 150 mM NaCl, experiment 1): 72.7%; Relative density normalised to WT (%) ([2]; 150 mM NaCl, experiment 2): 89.6%; Relative density normalised to WT (%) ([2]; 150 mM NaCl, experiment 3): 82.8%; Relative density normalised to WT (%) ([2]; 300 mM NaCl, experiment 1): 49.0%; Relative density normalised to WT (%) ([2]; 300 mM NaCl, experiment 2): 56.0%
R113A		63.4705%	4.285	0.2334	60.4116%	3.025	0.3306	58.2069%	3.0762	0.3251	76.2941%	2.643	0.3784	capable of binding eIF4GI HEAT-1	binding to His-eIF4GI HEAT-1, % of wild-type (His-eIF4GI HEAT-1 [3]): 60–80%
K120A		102.078%	2.664	0.3754	80.9274%	2.258	0.4429	85.5916%	2.092	0.478	78.1139%	2.581	0.3874	appears to bind as effectively as the wild-type sequence	% binding (relative to WT) (His-eIF4GI HEAT-1 [3]; repeat 7, 2015-08-05): 78.74%; Bait/Prey (His-eIF4GI HEAT-1 [3]; repeat 7, 2015-08-05): 4.118; Prey/Bait (His-eIF4GI HEAT-1 [3]; repeat 7, 2015-08-05): 0.2428
GST-MNV VPg(102–124) D110A	75														
D110A		71.5502%	3.801	0.2631	69.0469%	2.646	0.3779	77.4561%	2.312	0.4326	83.3957%	2.418	0.4136	capable of binding eIF4GI HEAT-1	binding to His-eIF4GI HEAT-1, % of wild-type (His-eIF4GI HEAT-1 [3]): 60–80%
GST-MNV VPg(102–124) V115A	3														
GST-MNV VPg(102–124) F123A	6														
